Results reported in ChEMBL document CHEMBL4699565, “Computational modeling and target synthesis of monomethoxy-substituted o-diphenylisoxazoles with unexpectedly high antimitotic microtubule destabilizing activity” (Bioorg Med Chem Lett, 2020).

How the values were obtained:
Paracentrotus lividus [1] = assay: Antimitotic activity against sea urchin embryo assessed as cleavage arrest measured 2.5 to 6 hrs post-fertilization by light microscopy analysis; assay type: functional; settings: time hrs 2.5-6
Paracentrotus lividus [2] = assay: Antimitotic activity against sea urchin embryo assessed as embryo spinning measured 2.5 to 6 hrs post-fertilization observed after 15 min to 20 hrs of treatment by light microscopy analysis; assay type: functional; settings: time hrs 0.25-20
Paracentrotus lividus [3] = assay: Antimitotic activity against sea urchin embryo assessed as cleavage alteration measured 2.5 to 6 hrs post-fertilization by light microscopy analysis; assay type: functional
K562 = assay: Cytotoxicity against human K562 cells; assay type: functional, cell-based
Tubulin (Homo sapiens) = Tubulin (Homo sapiens) (UniProt P68371+Q9H4B7+P0DPH7+P68366+Q13509+Q71U36+P04350+Q3ZCM7+P07437+P68363+Q9BQE3+Q6PEY2+Q13885+Q9BVA1+Q9BUF5); assay: Binding affinity to tubulin (unknown origin) assessed as change in gibbs free energy; assay type: protein-complex assay
[4] = tested on: Panel NCI-60 (60 carcinoma cell lines); assay: Cytotoxicity against human NCI60 cells; assay type: functional
MDA-MB-435 = assay: Cytotoxicity against human MDA MB 435 cells; assay type: functional
Paracentrotus lividus [5] = assay: Antimitotic activity against sea urchin embryo assessed as cleavage arrest by phase microscopy analysis; assay type: functional

Row | SMILES | EC (Paracentrotus lividus [1]) [µM] | EC (Paracentrotus lividus [2]) [µM] | EC (Paracentrotus lividus [3]) [µM] | IC50 (K562) [µM] | deltaG (Tubulin (Homo sapiens)) [kcal/mol] | GI50 [4] [µM] | GI50 (MDA-MB-435) [µM] | EC (Paracentrotus lividus [5]) [µM]
1 | COc1cc([C@@H]2c3cc4c(cc3[C@H](O)[C@H]3COC(=O)[C@H]23)OCO4)cc(OC)c1OC [PODOFILOX] | 0.05 | 0.5 | 0.02 | – | – | – | – | –
2 | COc1ccc(-c2conc2-c2ccccc2)cc1 | 0.05 | 0.1 | 0.005 | 0.047 | -11.3 | 0.457 | 0.026 | –
3 | COc1cc(-c2cc(-c3cccc(O)c3)cnc2N)cc(OC)c1OC | 1 | 1 | 0.1 | – | – | – | – | –
4 | COc1ccc(-c2nocc2-c2ccccc2)cc1 | 2 | 2 | 0.2 | – | -9.15 | – | – | –
5 | COc1ccc(/C=C\c2cc(OC)c(OC)c(OC)c2)cc1O [COMBRETASTATIN A4] | 0.01 | 0.05 | 0.002 | 0.001 | -11.9 | – | – | –
6 | COc1ccc(-c2cnoc2-c2ccccc2)cc1 | 0.02 | 0.1 | 0.002 | – | -11.9 | – | – | –
7 | COc1ccc(-c2nocc2-c2cc(OC)c(OC)c(OC)c2)cc1 | – | – | – | – | -10.9 | – | – | –
8 | COc1ccc(-c2oncc2-c2ccccc2)cc1 | 2 | >5 | 0.2 | – | -9.15 | – | – | –
9 | COc1cc2c(c(OC)c1OC)-c1ccc(OC)c(=O)cc1[C@@H](NC(C)=O)CC2 [COLCHICINE] | 0.1 | 0.05 | 0.05 | – | – | – | – | –
10 | COc1cc2c(c(OC)c1OC)-c1cc3c(cc1[C@H](OC(C)=O)[C@H]1COC(=O)[C@@H]1C2)OCO3 [(-)-STEGANACIN] | – | – | – | – | – | – | – | 0.3
